According to publication PMC8009520, “Exploration of TRPM8 Binding Sites by β-Carboline-Based Antagonists and Their In Vitro Characterization and In Vivo Analgesic Activities” (Journal of Medicinal Chemistry, 2020):
Values joined by “and” are separate entries in the source; they are usually repeats but may differ in a detail not shown here. Identical values can stand only once. Like-named read-outs stand apart in the source and are kept apart here.

What was measured:
hTRPA1 = target: T1, hTRPA1 (Homo sapiens, UniProt O75762); experiment: Selectivity fluorimetric assay, HEK-293 cells; type: cell-based; conditions: AITC as reference agonist
T1 construct: expressed in transfected cells; host or cells: HEK-293, stably transfected
T1 sequence (O75762 whole entry): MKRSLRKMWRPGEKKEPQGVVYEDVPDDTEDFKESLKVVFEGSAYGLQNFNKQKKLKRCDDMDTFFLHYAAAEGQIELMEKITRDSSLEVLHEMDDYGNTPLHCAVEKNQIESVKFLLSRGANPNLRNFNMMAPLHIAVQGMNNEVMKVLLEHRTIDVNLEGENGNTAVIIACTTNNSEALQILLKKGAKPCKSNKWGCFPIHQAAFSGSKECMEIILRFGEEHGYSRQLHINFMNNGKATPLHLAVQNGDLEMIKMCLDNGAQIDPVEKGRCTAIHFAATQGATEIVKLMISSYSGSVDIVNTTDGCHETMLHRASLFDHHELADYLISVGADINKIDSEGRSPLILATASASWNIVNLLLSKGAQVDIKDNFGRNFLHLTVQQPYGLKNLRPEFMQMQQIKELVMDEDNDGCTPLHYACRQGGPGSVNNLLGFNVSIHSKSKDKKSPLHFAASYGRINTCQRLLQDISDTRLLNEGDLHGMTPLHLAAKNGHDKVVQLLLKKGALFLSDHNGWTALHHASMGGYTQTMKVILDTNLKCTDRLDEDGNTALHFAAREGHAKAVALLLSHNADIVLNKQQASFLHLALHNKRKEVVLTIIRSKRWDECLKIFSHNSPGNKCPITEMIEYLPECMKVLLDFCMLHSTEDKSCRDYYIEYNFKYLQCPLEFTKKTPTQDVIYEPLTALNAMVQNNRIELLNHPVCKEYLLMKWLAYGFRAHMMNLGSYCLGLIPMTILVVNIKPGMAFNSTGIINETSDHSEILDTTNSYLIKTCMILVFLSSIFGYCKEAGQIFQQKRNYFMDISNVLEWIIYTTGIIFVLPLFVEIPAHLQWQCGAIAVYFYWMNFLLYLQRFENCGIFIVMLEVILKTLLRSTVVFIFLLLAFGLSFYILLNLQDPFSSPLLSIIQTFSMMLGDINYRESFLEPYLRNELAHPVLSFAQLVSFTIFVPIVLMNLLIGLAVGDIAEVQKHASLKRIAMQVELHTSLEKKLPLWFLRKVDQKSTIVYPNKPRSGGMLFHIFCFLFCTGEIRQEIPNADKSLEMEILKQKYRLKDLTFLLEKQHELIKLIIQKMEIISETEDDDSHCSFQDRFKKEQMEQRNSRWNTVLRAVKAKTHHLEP

[1] = target: T2, rat isoform of TRPM8 channels (Rattus norvegicus, UniProt Q8R455); experiment: Ca2+ fluorimetric assay, menthol-activated channel; type: cell-based
T2 construct: expressed in transfected cells
T2 sequence (Q8R455 whole entry, canonical isoform): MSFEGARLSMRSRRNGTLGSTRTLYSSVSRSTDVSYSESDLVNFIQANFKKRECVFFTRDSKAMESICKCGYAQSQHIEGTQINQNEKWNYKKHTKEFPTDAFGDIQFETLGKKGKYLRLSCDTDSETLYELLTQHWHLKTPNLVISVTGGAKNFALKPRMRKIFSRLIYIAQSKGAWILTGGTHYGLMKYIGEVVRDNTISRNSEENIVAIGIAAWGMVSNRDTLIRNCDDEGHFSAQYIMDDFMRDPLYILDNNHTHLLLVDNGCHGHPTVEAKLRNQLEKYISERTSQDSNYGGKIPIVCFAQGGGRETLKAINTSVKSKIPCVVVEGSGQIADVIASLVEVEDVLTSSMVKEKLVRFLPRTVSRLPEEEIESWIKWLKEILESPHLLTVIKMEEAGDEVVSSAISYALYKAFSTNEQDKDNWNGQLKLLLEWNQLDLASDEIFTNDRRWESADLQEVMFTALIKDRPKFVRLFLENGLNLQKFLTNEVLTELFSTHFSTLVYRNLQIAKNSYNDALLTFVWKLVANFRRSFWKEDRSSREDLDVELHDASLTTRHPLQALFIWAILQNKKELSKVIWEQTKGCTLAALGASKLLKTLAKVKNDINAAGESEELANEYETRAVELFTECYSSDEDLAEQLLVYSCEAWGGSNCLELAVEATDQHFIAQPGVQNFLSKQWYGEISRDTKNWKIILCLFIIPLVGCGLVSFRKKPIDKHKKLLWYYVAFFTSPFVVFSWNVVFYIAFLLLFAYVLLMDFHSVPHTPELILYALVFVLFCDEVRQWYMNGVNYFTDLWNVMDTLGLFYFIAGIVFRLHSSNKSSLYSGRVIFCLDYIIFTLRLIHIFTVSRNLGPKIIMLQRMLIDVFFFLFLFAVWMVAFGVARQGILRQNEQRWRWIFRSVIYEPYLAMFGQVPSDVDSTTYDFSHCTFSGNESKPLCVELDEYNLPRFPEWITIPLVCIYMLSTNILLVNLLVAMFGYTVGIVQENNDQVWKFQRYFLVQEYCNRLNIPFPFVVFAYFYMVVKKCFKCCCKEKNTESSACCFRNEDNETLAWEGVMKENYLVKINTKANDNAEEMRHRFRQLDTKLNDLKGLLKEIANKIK
Description: TRPM8 blocker activity of all synthesized compounds was tested by Ca^2+ fluorimetric assays using HEK-293 cells stably expressing the rat isoform of TRPM8 channels, using menthol and AMTB as prototypical agonist and antagonist, respectively.
For measurement of the potency of the compounds, fluorimetric experiments were performed using HEK-293 cells (CRL-1573TM, American Type Culture Collection, LGC Promochem, Molsheim, France) that stably express rat TRPM8. The cells were seeded in 96-well plates (Corning Incorporated, Corning, NY) at a cell density of 40 000 cells 2 days before treatment. On the day of treatment, the medium was replaced with 100 μL of the dye loading solution Fluo-4 NW supplemented with probenecid 2.5 mM.
The tested molecules dissolved in DMSO were added at the desired concentrations, and the plates were incubated in darkness at 37 °C in a humidified atmosphere of 5% CO2 for 60 min. The fluorescence was measured using instrument settings appropriate for excitation at 485 nm and emission at 535 nm (POLARstar Omega BMG LABtech). A baseline recording of four cycles was recorded prior to stimulation with the agonist (100 μM menthol for TRPM8). The TRPM8 antagonist, 10 μM AMTB, was added to the medium containing the corresponding agonist to induce channel blockade. The changes in fluorescence intensity were recorded during 15 cycles more. The higher concentration of DMSO used in the experiment was added to the control wells. The cells’ fluorescence was measured before and after the addition of various concentrations of test compounds. The fluorescence values obtained are normalized to that prompted by the corresponding agonist (for channel activating compounds) or upon agonist and antagonist coexposure (for channel blocker compounds).

hTRPV1 = target: T3, hTRPV1 (Homo sapiens, UniProt Q8NER1); experiment: Selectivity fluorimetric assay, CHO-K1 cells; type: cell-based; conditions: capsaicine as reference agonist
T3 construct: expressed in transfected cells; host or cells: CHO-K1, stably transfected
T3 sequence (Q8NER1 whole entry): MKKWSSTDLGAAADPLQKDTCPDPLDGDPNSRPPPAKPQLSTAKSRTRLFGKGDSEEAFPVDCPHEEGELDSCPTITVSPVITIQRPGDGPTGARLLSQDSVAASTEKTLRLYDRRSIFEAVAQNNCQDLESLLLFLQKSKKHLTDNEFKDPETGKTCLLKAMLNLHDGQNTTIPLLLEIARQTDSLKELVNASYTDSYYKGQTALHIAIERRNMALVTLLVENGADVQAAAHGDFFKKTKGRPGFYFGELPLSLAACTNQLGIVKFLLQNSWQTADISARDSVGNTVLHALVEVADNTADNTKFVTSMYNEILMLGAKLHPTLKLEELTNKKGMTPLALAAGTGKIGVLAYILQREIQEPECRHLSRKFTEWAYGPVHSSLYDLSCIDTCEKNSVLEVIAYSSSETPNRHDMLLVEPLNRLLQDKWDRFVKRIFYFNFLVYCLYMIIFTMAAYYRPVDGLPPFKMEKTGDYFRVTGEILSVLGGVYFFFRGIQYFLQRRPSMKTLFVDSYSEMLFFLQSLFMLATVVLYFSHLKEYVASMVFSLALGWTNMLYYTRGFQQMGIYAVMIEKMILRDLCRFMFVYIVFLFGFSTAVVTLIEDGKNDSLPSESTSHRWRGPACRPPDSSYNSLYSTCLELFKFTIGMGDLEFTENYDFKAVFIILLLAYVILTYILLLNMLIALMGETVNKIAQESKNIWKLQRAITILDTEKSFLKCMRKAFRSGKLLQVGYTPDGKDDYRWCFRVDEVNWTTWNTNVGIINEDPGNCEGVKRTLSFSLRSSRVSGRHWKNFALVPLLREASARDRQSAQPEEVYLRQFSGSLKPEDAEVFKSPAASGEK

hNav1.7 = target: T4, hNav1.7 (Homo sapiens, UniProt Q15858); experiment: Selectivity fluorimetric assay, HEK-293 cells; type: cell-based; conditions: for IC50: read-out: IC50, antagonistic activity over Nav1.7; for activity as agonist or antagonist on Nav1.7: veratridine as reference agonist
T4 construct: expressed in transfected cells; host or cells: HEK-293, stably transfected
T4 sequence (Q15858 whole entry): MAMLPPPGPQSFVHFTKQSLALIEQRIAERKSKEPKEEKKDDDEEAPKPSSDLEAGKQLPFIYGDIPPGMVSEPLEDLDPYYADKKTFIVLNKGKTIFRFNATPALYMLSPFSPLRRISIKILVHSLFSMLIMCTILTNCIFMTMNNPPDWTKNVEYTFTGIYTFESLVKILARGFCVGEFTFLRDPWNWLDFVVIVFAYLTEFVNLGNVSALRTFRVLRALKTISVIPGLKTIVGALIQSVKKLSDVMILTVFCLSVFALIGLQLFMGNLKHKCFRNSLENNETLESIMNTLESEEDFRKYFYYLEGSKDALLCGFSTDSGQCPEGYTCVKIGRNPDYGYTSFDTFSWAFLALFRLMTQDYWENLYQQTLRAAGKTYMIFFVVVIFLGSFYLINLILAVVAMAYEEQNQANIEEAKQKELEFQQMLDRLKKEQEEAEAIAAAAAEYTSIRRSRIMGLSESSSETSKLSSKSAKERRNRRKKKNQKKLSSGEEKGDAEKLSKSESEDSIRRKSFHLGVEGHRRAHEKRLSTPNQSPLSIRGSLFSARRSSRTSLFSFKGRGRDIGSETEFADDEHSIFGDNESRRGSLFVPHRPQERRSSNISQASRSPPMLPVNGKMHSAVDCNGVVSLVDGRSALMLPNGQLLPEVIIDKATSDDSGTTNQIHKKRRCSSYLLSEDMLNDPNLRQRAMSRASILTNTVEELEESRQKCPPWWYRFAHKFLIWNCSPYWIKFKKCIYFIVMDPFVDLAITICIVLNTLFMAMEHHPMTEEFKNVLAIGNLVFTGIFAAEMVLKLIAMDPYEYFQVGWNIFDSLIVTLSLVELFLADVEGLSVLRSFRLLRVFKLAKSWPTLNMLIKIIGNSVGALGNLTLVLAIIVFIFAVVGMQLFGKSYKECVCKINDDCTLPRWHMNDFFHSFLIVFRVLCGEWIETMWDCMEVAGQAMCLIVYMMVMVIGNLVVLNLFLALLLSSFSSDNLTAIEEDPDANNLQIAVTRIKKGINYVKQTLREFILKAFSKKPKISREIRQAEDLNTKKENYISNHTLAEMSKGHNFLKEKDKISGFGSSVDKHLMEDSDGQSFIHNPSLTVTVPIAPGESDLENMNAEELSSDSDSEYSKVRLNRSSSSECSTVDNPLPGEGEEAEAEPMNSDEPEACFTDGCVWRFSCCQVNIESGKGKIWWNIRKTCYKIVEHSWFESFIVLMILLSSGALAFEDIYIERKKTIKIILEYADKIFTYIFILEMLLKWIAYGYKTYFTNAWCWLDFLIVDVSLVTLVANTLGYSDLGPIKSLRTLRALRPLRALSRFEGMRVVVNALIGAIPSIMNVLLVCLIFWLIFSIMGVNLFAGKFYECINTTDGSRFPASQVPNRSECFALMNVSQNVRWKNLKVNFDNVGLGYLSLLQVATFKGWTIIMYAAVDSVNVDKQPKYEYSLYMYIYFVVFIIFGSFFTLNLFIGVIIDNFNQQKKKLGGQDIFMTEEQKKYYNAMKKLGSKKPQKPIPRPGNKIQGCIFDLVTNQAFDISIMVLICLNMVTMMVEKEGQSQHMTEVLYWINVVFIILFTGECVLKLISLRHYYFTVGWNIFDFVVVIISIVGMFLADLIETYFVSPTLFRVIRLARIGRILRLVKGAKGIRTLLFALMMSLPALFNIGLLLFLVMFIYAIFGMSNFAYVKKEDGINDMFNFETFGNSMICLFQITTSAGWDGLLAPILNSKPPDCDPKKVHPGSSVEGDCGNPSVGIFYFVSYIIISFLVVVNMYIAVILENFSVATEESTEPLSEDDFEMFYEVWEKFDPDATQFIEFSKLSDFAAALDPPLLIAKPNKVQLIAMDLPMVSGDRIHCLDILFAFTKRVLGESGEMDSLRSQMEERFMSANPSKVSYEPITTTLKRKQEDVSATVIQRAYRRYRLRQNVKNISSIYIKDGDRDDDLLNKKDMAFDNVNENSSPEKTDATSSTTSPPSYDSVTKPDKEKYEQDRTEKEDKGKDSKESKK

[2] = In vitro metabolic stability using liver microsomes; type: in vitro ADME, human; conditions: 60 min with liver microsomes, no NADPH or UDP-GlcUA/NADPH
Description: Compound 4 was used as reference, considering that its main pitfall was represented by metabolic instability that the newly synthesized compounds were aimed in overcoming. […] Each sample (2.5 mM) was incubated with 100 mM phosphate buffer (pH 7.4) and 20 mg/mL of liver microsomes (Thermo Fisher Scientific, Bremen, Germany). After preincubation in water bath for 5 min, the mixture was incubated with 20 mM NADPH (protocol I) at 37 °C for 60 min in a Thermomixer comfort (Eppendorf, Hamburg, Germany). For the measurement of UGT activity the microsomes were preincubated with alamethicin, which forms pores in microsomal membranes, promoting access of substrate and cofactor to UGT enzymes. Subsequently, each sample was incubated with 100 mM phosphate buffer, 500 mM magnesium chloride, 10 mM NADPH, and 20 mM UDP-GlcUA at 37 °C for 60 min. Finally, the reactions from both protocols (protocols I and II) were stopped by the addition of 200 μL of ice-cold methanol, and then samples were centrifuged at 10 000 rpm at 25 °C for 5 min (Eppendorf microcentrifuge 5424, Hamburg, Germany). The supernatants were collected and injected in UHPLC-PDA. The control at 0 min was obtained by addition of the organic solvent immediately after incubation with microsomes. […] The extent of metabolism is expressed as a percentage of the parent compound turnover using the following equation, as previously described:[43] […]

[3] = Time-course cis to trans epimerization stability (HPLC); type: physicochemical; conditions: for conversion of cis isomer to trans isomer: during 60 min, regardless of the solvent used (PBS, methanol)
Description: In this case, a different chemical approach is required because of the minor reactivity of anilines. Intermediates THBC 32a and 32b were coupled with 3CF3 or 2F or 4-F-phenyl isocyanate in basic medium of TEA. […] Absolute configuration was determined as described above. The formation of the cis intermediates, which was not observed with the N-benzyl or N-alkyl analogs, can be explained by the increased stability of the kinetic control species due to the higher rigidity of this structure. […] In addition, the corresponding C-11a epimers 36a′–38a′ could be obtained directly by reaction of 32b with the corresponding isocyanates and TEA at 60 °C for 30 min in 39–45% yields.
Figure S1: Time-course trans (36a’-38a’) / cis (36b-38b) HPLC peak area ratio in physiological
buffer (PBS, panel A) and methanol (Panel B).

[4] = HEK-293 cells stably expressing rat TRPM8, menthol as agonist, mean ± SD of at least three measurements, read-out: IC50
[5] = Table 2, Ca2+ fluorimetric assay, read-out: IC50 Ca2+
[6] = supplementary xlsx, read-out: rTRPM8 IC50 (calcium microfluorimetric assays)

Row | IC50 (hNav1.7) [nM] | SMILES | activity as agonist or antagonist on TRPA1 (hTRPA1) | IC50 [1, 4] | activity as agonist or antagonist on TRPV1 (hTRPV1) | turnover in absence of metabolic cofactors [2] [%] | IC50 [1, 5] [nM] | activity as agonist or antagonist on Nav1.7 (hNav1.7) | percentage of epimerization ([3]; during patch-clamp electrophysiology assays) | IC50 [1, 6] [nM] | conversion of cis isomer to trans isomer [3]
1 | > 10000 | COC(=O)[C@@H]1Cc2c([nH]c3ccccc23)[C@@H](c2ccccc2)N1Cc1ccccc1 [6a, (1R,3S)-Methyl 2-Benzyl-1-phenyl-2,3,4,9-tetrahydro-1H-pyrido[3,4-b]indole-3-carboxylate] | no activity as agonists or antagonists | 1300 ± 700 nM | no activity as agonists or antagonists | – | – | – | – | – | –
2 | – | COC(=O)CC[C@H]1N[C@H](C(=O)NCc2ccc(F)cc2)Cc2c1[nH]c1ccccc21 [11a, Methyl 3-((1R,3S)-3-((4-Fluorobenzyl)carbamoyl)-2,3,4,9-tetrahydro-1H-pyrido[3,4-b]indol-1-yl)propanoate] | no activity as agonists or antagonists | 800 nM and 1100 nM | no activity as agonists or antagonists | 66.5 ± 3.8 | 1100 ± 500 | no activity as agonists or antagonists | – | – | –
3 | – | O=C1[C@@H]2Cc3c([nH]c4ccccc34)[C@H](c3ccc(F)cc3)N2C(=O)N1c1cccc(C(F)(F)F)c1 [36b, (5S,11aS)-5-(4-Fluorophenyl)-2-(3-(trifluoromethyl)phenyl)-5,6,11,11a-tetrahydro-1H-imidazo[1′,5′:1,6]pyrido[3,4-b]indole-1,3(2H)-dione] | no activity as agonists or antagonists | 200 ± 200 nM | no activity as agonists or antagonists | – | 200 ± 200 | no activity as agonists or antagonists | negligible | 300 ± 400 | –
4 | – | O=C1[C@@H]2Cc3c([nH]c4ccccc34)[C@H](c3ccc(F)cc3)N2C(=O)N1c1ccccc1F [37b, (5S,11aS)-2-(2-Fluorophenyl)-5-(4-fluorophenyl)-5,6,11,11a-tetrahydro-1H-imidazo[1′,5′:1,6]pyrido[3,4-b]indole-1,3(2H)-dione] | – | – | – | – | – | – | – | – | almost fully converted to the trans isomers
5 | – | O=C1[C@@H]2Cc3c([nH]c4ccccc34)[C@H](c3ccc(F)cc3)N2C(=O)N1c1ccc(F)cc1 [38b, (5S,11aS)-2,5-Bis(4-fluorophenyl)-5,6,11,11a-tetrahydro-1H-imidazo[1′,5′:1,6]pyrido[3,4-b]indole-1,3(2H)-dione] | – | – | – | – | – | – | – | – | almost fully converted to the trans isomers
6 | > 10000 | O=C(NCc1ccc(F)cc1)[C@@H]1Cc2c([nH]c3ccccc23)CN1 [compound 9, (S)-N-(4-Fluorobenzyl)-2,3,4,9-tetrahydro-1H-pyrido[3,4-b]indole-3-carboxamide] | no activity as agonists or antagonists | 900 ± 400 nM | no activity as agonists or antagonists | – | 900 ± 400 | – | – | 600 ± 1300 | –
7 | – | O=C1N[C@H](Cc2ccccc2)C(=O)N2Cc3[nH]c4ccccc4c3C[C@@H]12 [compound 23, (3R,12aS)-3-Benzyl-2,3,12,12a-tetrahydropyrazino[1′,2′:1,6]pyrido[3,4-b]indole-1,4(6H,7H)-dione] | no activity as agonists or antagonists | 400 ± 100 nM | no activity as agonists or antagonists | – | 400 ± 100 | no activity as agonists or antagonists | – | 300 | –
